This note sets out measurements from patent US12404239B2, “Modulators of BCL6 as ligand directed degraders” (Celgene Corporation, priority 2022, dated 2025).

This assay deals with T1, BCL6 (Homo sapiens, UniProt P41182).
T1 construct: HiBiT-tag knocked into endogenous BCL6 locus using CRISPR; endogenous in cells; host or cells: DHL-4_BCL6_HiBiT cells (CRISPR knock-in)
The experiment in a line: BCL6_HiBiT degradation assay (2 h). The note with it: DHL-4_BCL6_HiBiT cells, read-out: YCon (% remaining maximal effect). The assay is classed as cell-based. The procedure, abridged:
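DHL-4 cells carrying CRISPR HiBiT knock-in at endogenous BCL6, treated 2 h at 37 °C with 10-point 3-fold dilutions from 1-10 μM. BCL6 level read by Nano-Glo HiBiT lytic luminescence normalized to DMSO; four-parameter fit gives degradation EC50 and Yconstant (% remaining at maximal effect).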
For orientation: HiBiT is a short tag that completes a luciferase, so light tracks the accessible tagged protein.
On to `C[C@@H]1CN(c2ncc(Cl)c(Nc3ccc4c(c3)C(F)(F)C(=O)N4C)n2)CC[C@H]1Nc1ccc2c(C3CCC(=O)NC3=O)nn(C)c2c1` (stereo partly drawn) [Example 56, 3-(6-(((3R,4R)-1-(5-chloro-4-((3,3-difluoro-1-methyl-2-oxoindolin-5-yl)amino)pyrimidin-2-yl)-3-methylpiperidin-4-yl)amino)-1-methyl-1H-indazol-3-yl)piperidine-2,6-dione], for which the Percent BCL6 remaining at maximal degradation (Ycon) is under 20%. For the molecule `CN1C(=O)Cc2cc(Nc3nc(N4CC[C@@H](Nc5ccc6c(C7CCC(=O)NC7=O)nn(C)c6c5)[C@@H](CO)C4)ncc3Cl)ccc21` (stereo partly drawn) [Example 57, 3-[6-[[(3S,4R)-1-[5-Chloro-4-[(1-methyl-2-oxo-indolin-5-yl)amino]pyrimidin-2-yl]-3-(hydroxymethyl)-4-piperidyl]amino]-1-methyl-indazol-3-yl]piperidine-2,6-dione], the Percent BCL6 remaining at maximal degradation (Ycon) was over 60%.

With `CN1C(=O)Cc2cc(Nc3nc(N4CC[C@H](Nc5ccc6c(C7CCC(=O)NC7=O)nn(C)c6c5)[C@H](CO)C4)ncc3Cl)ccc21` (stereo partly drawn) [Example 58, 3-(6-(((3R,4S)-1-(5-chloro-4-((1-methyl-2-oxoindolin-5-yl)amino)pyrimidin-2-yl)-3-(hydroxymethyl)piperidin-4-yl)amino)-1-methyl-1H-indazol-3-yl)piperidine-2,6-dione], the Percent BCL6 remaining at maximal degradation (Ycon) lay within 20 to 60%.

For `CN1C(=O)Cc2cc(Nc3nc(N(C)C4CCN(c5cnc6c(C7CCC(=O)NC7=O)nn(C)c6c5)CC4)ncc3Cl)ccc21` (stereo not shown) [Example 59, 3-(6-(4-((5-chloro-4-((1-methyl-2-oxoindolin-5-yl)amino)pyrimidin-2-yl)(methyl)amino)piperidin-1-yl)-1-methyl-1H-pyrazolo[4,3-b]pyridin-3-yl)piperidine-2,6-dione], the Percent BCL6 remaining at maximal degradation (Ycon) was over 60%. For `CN1C(=O)Cc2cc(Nc3nc(N(C)C4CCN(c5cc6c(cn5)c(C5CCC(=O)NC5=O)nn6C)CC4)ncc3Cl)ccc21` (stereo not shown) [Example 60, 3-(6-(4-((5-chloro-4-((1-methyl-2-oxoindolin-5-yl)amino)pyrimidin-2-yl)(methyl)amino)piperidin-1-yl)-1-methyl-1H-pyrazolo[4,3-c]pyridin-3-yl)piperidine-2,6-dione], the Percent BCL6 remaining at maximal degradation (Ycon) is over 60%. The same measure for `C[C@@H]1CN(c2ncc(Cl)c(Nc3ccc4c(c3)N(C)C(=O)C4)n2)CC[C@H]1Nc1ccc2c(C3CCC(=O)NC3=O)nn(C)c2c1` (stereo partly drawn) [Example 61, 3-(6-(((3R,4R)-1-(5-chloro-4-((1-methyl-2-oxoindolin-6-yl)amino)pyrimidin-2-yl)-3-methylpiperidin-4-yl)amino)-1-methyl-1H-indazol-3-yl)piperidine-2,6-dione]: under 20%; for `C[C@@H]1CN(c2ncc(Cl)c(Nc3ccc4c(c3)CC(=O)N4C)n2)CC[C@H]1Nc1ccc2c(C3CCC(=O)NC3=O)nn(C)c2n1` (stereo partly drawn) [Example 62, 3-(6-(((3R,4R)-1-(5-chloro-4-((1-methyl-2-oxoindolin-5-yl)amino)pyrimidin-2-yl)-3-methylpiperidin-4-yl)amino)-1-methyl-1H-pyrazolo[3,4-b]pyridin-3-yl)piperidine-2,6-dione]: under 20%. The result for `Cn1nc(C2CCC(=O)NC2=O)c2ccc(NC3CCN(c4ncc(Cl)c(Nc5ccc6c(c5)CC(=O)N6)n4)CC3)cc21` (stereo not shown) [Example 63, 3-(6-((1-(5-chloro-4-((2-oxoindolin-5-yl)amino)pyrimidin-2-yl)piperidin-4-yl)amino)-1-methyl-1H-indazol-3-yl)piperidine-2,6-dione] reads over 60%; that for `CN1C(=O)Cc2cc(Nc3nc(N4CCC(Nc5ccc6c(C7CCC(=O)NC7=O)nn(C)c6c5)C(F)(F)C4)ncc3Cl)ccc21` (stereo not shown) [Example 64, 3-(6-((1-(5-Chloro-4-((1-methyl-2-oxoindolin-5-yl)amino)pyrimidin-2-yl)-3,3-difluoropiperidin-4-yl)amino)-1-methyl-1H-indazol-3-yl)piperidine-2,6-dione], over 60%; that for `CN1C(=O)Cc2cc(Nc3nc(N4CCC(Nc5ccc6c(N7CCC(=O)NC7=O)nn(C)c6c5)C(F)(F)C4)ncc3Cl)ccc21` (stereo not shown) [Example 65, 1-(6-((1-(5-chloro-4-((1-methyl-2-oxoindolin-5-yl)amino)pyrimidin-2-yl)-3,3-difluoropiperidin-4-yl)amino)-1-methyl-1H-indazol-3-yl)dihydropyrimidine-2,4(1H,3H)-dione], over 60%. As for `CN1C(=O)Cc2cc(Nc3nc(N4CC[C@@H](Nc5ccc6c(C7CCC(=O)NC7=O)nn(C)c6c5)C(F)(F)C4)ncc3Cl)ccc21` (stereo partly drawn) [Example 66, 3-(6-(((R)-1-(5-chloro-4-((1-methyl-2-oxoindolin-5-yl)amino)pyrimidin-2-yl)-3,3-difluoropiperidin-4-yl)amino)-1-methyl-1H-indazol-3-yl)piperidine-2,6-dione], the Percent BCL6 remaining at maximal degradation (Ycon) was over 60%.

Take `CN1C(=O)Cc2cc(Nc3nc(N4CC[C@H](Nc5ccc6c(C7CCC(=O)NC7=O)nn(C)c6c5)C(F)(F)C4)ncc3Cl)ccc21` (stereo partly drawn) [Example 67, 3-(6-(((S)-1-(5-chloro-4-((1-methyl-2-oxoindolin-5-yl)amino)pyrimidin-2-yl)-3,3-difluoropiperidin-4-yl)amino)-1-methyl-1H-indazol-3-yl)piperidine-2,6-dione]: the Percent BCL6 remaining at maximal degradation (Ycon) was 20 to 60%.

Consider `CN1C(=O)Cc2cc(Nc3nc(NC4CCN(c5ccc6c(C7CCC(=O)NC7=O)nn(C)c6c5)CC4(F)F)ncc3Cl)ccc21` (stereo not shown) [Example 68, 3-(6-(4-((5-chloro-4-((1-methyl-2-oxoindolin-5-yl)amino)pyrimidin-2-yl)amino)-3,3-difluoropiperidin-1-yl)-1-methyl-1H-indazol-3-yl)piperidine-2,6-dione], for which the Percent BCL6 remaining at maximal degradation (Ycon) is 20 to 60%. The same measure for `CCN1C(=O)Cc2cc(Nc3nc(N4CC[C@@H](Nc5ccc6c(C7CCC(=O)NC7=O)nn(C)c6c5)[C@H](C)C4)ncc3Cl)ccc21` (stereo partly drawn) [Example 69, 3-(6-(((3R,4R)-1-(5-chloro-4-((1-ethyl-2-oxoindolin-5-yl)amino)pyrimidin-2-yl)-3-methylpiperidin-4-yl)amino)-1-methyl-1H-indazol-3-yl)piperidine-2,6-dione]: under 20%. The result for `C[C@@H]1CN(c2ncc(Cl)c(Nc3ccc4c(c3)CC(=O)N4C)n2)CC[C@H]1Nc1ccc2c(C3CCC(=O)NC3=O)nn(C)c2c1` (stereo partly drawn) [Example 70, 3-(6-(((3R,4R)-1-(5-chloro-4-((1-methyl-2-oxoindolin-5-yl)amino)pyrimidin-2-yl)-3-methylpiperidin-4-yl)amino)-1-methyl-1H-indazol-3-yl)piperidine-2,6-dione] reads under 20%; that for `C[C@@H]1CN(c2ncc(Cl)c(Nc3ccc4c(c3)CC(=O)N4C)n2)CC[C@H]1N(C)c1ccc2c(C3CCC(=O)NC3=O)nn(C)c2c1` (stereo partly drawn) [Example 73, 3-(6-(((3R,4R)-1-(5-chloro-4-((1-methyl-2-oxoindolin-5-yl)amino)pyrimidin-2-yl)-3-methylpiperidin-4-yl)(methyl)amino)-1-methyl-1H-indazol-3-yl)piperidine-2,6-dione], under 20%.
